# Assay results: patent US20200262865A1, “COMPOSITIONS AND METHODS FOR TREATING CLOSTRIDIUM ASSOCIATED DISEASES” (REGENTS OF THE UNIVERSITY OF MINNESOTA, priority 2016, published 2020)
# Like-named read-outs stand apart in the source and are kept apart here.
# Columns and labels:
# [1] = test system: Spores from a NAP1 strain of C. difficile; test: Optical density (OD600) C. difficile spore germination assay; type: cell-based, Clostridium difficile; conditions: BHIS with 2000 μM TCA, OD600 over 20 minutes; for IC100: read-out: concentration giving essentially complete inhibition of spore germination
# [2] = test system: highly virulent NAP1 strain of C. difficile; conditions: cited from earlier work
# NAP1 spores = test: Phase-contrast (microscope) spore count assay; type: cell-based, Clostridium difficile; conditions: for Percent Spore Germination t20 / Percent Spore Germination Relative to control / Percent Spore Germination t0: 10 μM bile acid analog; for Percent Spore Germination t20 / Percent Spore Germination Relative to control / inhibitor of spore germination (rating in words from Table 1 data): 2000 μM taurocholic acid; for Percent Spore Germination t20 / Percent Spore Germination Relative to control: after 20 minutes; for Percent Spore Germination t0: time zero, before exposure to TCA; for inhibitor of spore germination (rating in words from Table 1 data): 10 μM, 20 minutes
# [3] = rat, in vivo; cited from earlier work
# [4] = Clostridioides difficile, 20 min
Structure (SMILES),"IC100 [1, 4] [µM]",Percent Spore Germination t20 (NAP1 spores) [%],Percent Spore Germination Relative to control (NAP1 spores) [%],Percent Spore Germination t0 (NAP1 spores) [%],inhibitor of spore germination (rating in words from Table 1 data) (NAP1 spores),also measured
COC(=O)CC[C@@H](C)[C@H]1CC[C@H]2[C@@H]3[C@H](O)C[C@@H]4C[C@H](OC)CC[C@]4(C)[C@H]3CC[C@]12C [KLS-1-029D],500,,,,,
C[C@H](CCC(=O)Nc1cccc(S(=O)(=O)O)c1)[C@H]1CC[C@H]2[C@@H]3[C@H](O)C[C@@H]4C[C@H](O)CC[C@]4(C)[C@H]3C[C@H](O)[C@]12C [CamSA],,,,,,efficacy at inhibiting germination [2]: very little efficacy
CCCCNC(=O)CC[C@@H](C)[C@H]1CC[C@H]2[C@@H]3[C@H](O)C[C@@H]4C[C@H](O)CC[C@]4(C)[C@H]3CC[C@]12C [Comparative Example 3],500,,,,,
CO[C@@H]1CC[C@@]2(C)[C@@H](C1)C[C@H](O)[C@@H]1[C@@H]2CC[C@]2(C)[C@@H]([C@H](C)CCC(=O)O)CC[C@@H]12 [KLS-1-014B],,,,,,concentration giving partial inhibition of spore germination [1]: 0.50 mM
CCCCNC(=O)CC[C@@H](C)[C@H]1CC[C@H]2[C@@H]3[C@@H](O)C[C@@H]4C[C@H](O)CC[C@]4(C)[C@H]3CC[C@]12C [Comparative Example 4],500,,,,,
C[C@H](CCc1nnn[nH]1)[C@H]1CCC2C3C(CC[C@@]21C)[C@@]1(C)CC[C@@H](O)CC1C[C@@H]3O (stereo partly shown) [Example 12],,29 ± 4,19 ± 4,17 ± 4,moderate inhibitors,
C[C@H](CCC(=O)N1CCCC1)[C@H]1CC[C@H]2[C@@H]3[C@H](O)C[C@@H]4C[C@H](O)CC[C@]4(C)[C@H]3CC[C@]12C [Example 2],100,,,,,
C[C@H](CCc1nnn[n-]1)[C@H]1CC[C@H]2[C@@H]3[C@H](O)C[C@@H]4C[C@H](O)CC[C@]4(C)[C@H]3CC[C@]12C.[Na+] [Example 14],,22 ± 6,12 ± 6,15 ± 6,potent inhibitors,IC100 [1]: 10 µM
"COC(=O)CC[C@@H](C)[C@H]1CC[C@H]2[C@@H]3[C@H](O)C[C@@H]4C[C@H](O)CC[C@]4(C)[C@H]3CC[C@]12C [Comparative Example 1, reference compound]",500,71 ± 1,73 ± 1,25 ± 6,weak inhibitors,
CO[C@@H]1CC[C@@]2(C)[C@@H](C1)C[C@H](OS(=O)(=O)[O-])[C@@H]1[C@@H]2CC[C@]2(C)[C@@H]([C@H](C)CCc3nnn[n-]3)CC[C@@H]12.[Na+].[Na+] [Example 17],,44 ± 3,42 ± 3,21 ± 3,moderate inhibitors,
CO[C@@H]1CC[C@@]2(C)[C@@H](C1)C[C@H](O)[C@@H]1[C@@H]2CC[C@]2(C)[C@@H]([C@H](C)CCc3nnn[n-]3)CC[C@@H]12.[Na+] [Example 15],,31 ± 4,26 ± 4,16 ± 4,moderate inhibitors,
COC(=O)CC[C@@H](C)[C@H]1CC[C@H]2[C@@H]3[C@@H](O)C[C@@H]4C[C@H](O)CC[C@]4(C)[C@H]3CC[C@]12C [Comparative Example 2],100,,,,,
CO[C@@H]1CC[C@@]2(C)[C@@H](C1)C[C@@H](O)[C@@H]1[C@@H]2CC[C@]2(C)[C@@H]([C@H](C)CCc3nnn[n-]3)CC[C@@H]12.[Na+] [Example 16],,21 ± 4,8 ± 4,16 ± 4,potent inhibitors,IC100 [1]: 5 µM
COC(=O)CC[C@@H](C)[C@H]1CC[C@H]2[C@@H]3[C@@H](OC)C[C@@H]4C[C@H](O)CC[C@]4(C)[C@H]3CC[C@]12C [Comparative Example 11],500,,,,,
"CO[C@H]1C[C@@H]2C[C@H](O)CC[C@]2(C)[C@H]2CC[C@]3(C)[C@@H]([C@H](C)CCC(=O)O)CC[C@H]3[C@H]12 [Comparative Example 10, reference compound]",,71 ± 2,75 ± 2,25 ± 4,weak inhibitors,concentration giving partial inhibition of spore germination [1]: 0.5 mM
C[C@H](CCC1=NC(C)(C)CO1)[C@H]1CC[C@H]2[C@@H]3[C@@H](O)C[C@@H]4C[C@H](O)CC[C@]4(C)[C@H]3CC[C@]12C [Example 9],500,,,,,
CO[C@@H]1CC[C@@]2(C)[C@@H](C1)C[C@H](OS(=O)(=O)[O-])[C@@H]1[C@@H]2CC[C@]2(C)[C@@H]([C@H](C)CCC(=O)N3CCCC3)CC[C@@H]12.[Na+] [Example 7],,30 ± 6,9 ± 5,18 ± 2,potent inhibitors,
CC(CCC(=O)O)C1CCC2C3C(OS(=O)(=O)O)CC4CC(O)CCC4(C)C3CCC12C (stereo not shown) [C7-sulfated UDCA],,,,,,absorption from the colon [3]: poorly absorbed
CC(=O)O[C@@H]1CC[C@@]2(C)[C@@H](C1)C[C@@H](OC(C)=O)[C@@H]1[C@@H]2CC[C@]2(C)[C@@H]([C@H](C)CCC(N)=O)CC[C@@H]12 [Comparative Example 20],50,,,,,
C[C@H](CCC(=O)N1CCCC1)[C@H]1CC[C@H]2[C@@H]3[C@@H](O)C[C@@H]4C[C@H](O)CC[C@]4(C)[C@H]3CC[C@]12C [Example 1],100,,,,,
CO[C@@H]1CC[C@@]2(C)[C@@H](C1)C[C@@H](O)[C@@H]1[C@@H]2CC[C@]2(C)[C@@H]([C@H](C)CCC(=O)O)CC[C@@H]12 [KLS-1-012B],,,,,,concentration giving partial inhibition of spore germination [1]: 0.1 mM
COC(=O)CC[C@@H](C)[C@H]1CC[C@H]2[C@@H]3[C@H](OC)C[C@@H]4C[C@H](O)CC[C@]4(C)[C@H]3CC[C@]12C [Comparative Example 14],500,,,,,
CO[C@@H]1CC[C@@]2(C)[C@@H](C1)C[C@@H](OS(=O)(=O)[O-])[C@@H]1[C@@H]2CC[C@]2(C)[C@@H]([C@H](C)CCc3nnn[n-]3)CC[C@@H]12.[Na+].[Na+] [Example 18],,48 ± 11,51 ± 11,20 ± 11,moderate inhibitors,IC100 [1]: 25 µM
CO[C@@H]1CC[C@@]2(C)[C@@H](C1)C[C@H](OC)[C@@H]1[C@@H]2CC[C@]2(C)[C@@H]([C@H](C)CCC(=O)O)CC[C@@H]12 [KLS-1-014A],,,,,,concentration giving partial inhibition of spore germination [1]: 1.0 mM
COC(=O)CC[C@@H](C)[C@H]1CC[C@H]2[C@@H]3C[C@H](O)[C@@H]4C[C@H](O)CC[C@]4(C)[C@H]3CC[C@]12C [Example 3],500,,,,,
COC(=O)CC[C@@H](C)[C@H]1CC[C@H]2[C@@H]3[C@@H](O)C[C@@H]4C[C@H](OC)CC[C@]4(C)[C@H]3CC[C@]12C [KLS-1-031C],500,,,,,
